Several values for one entry are separate records, joined by “and”; a condition that tells them apart may be missing. Identical values can stand only once.
Columns and labels:
[1] = system: Botrytis cinerea; assay: Treatment of strawberries: wounded, inoculated with Botrytis cinerea, dipped in antifungal composition (Examples 5, 6); format: in vivo; details: 20° C.
Experimental: Twelve fresh, organic strawberries were used per treatment. Each strawberry was wounded with a 0.5 mm long cut and each wound was inoculated with 10 μl of a Botrytis cinerea suspension containing 1×10^5 of spores/ml. After a 3-hour incubation period at 20° C., each strawberry was dipped individually for 1 minute in a freshly prepared aqueous antifungal composition comprising either 500 ppm natamycin (DSM Food Specialties, Delft, The Netherlands), 500 ppm fludioxonil or both. Each antifungal composition also comprised 3.2% (w/w) beeswax, 0.8% (w/w) glycerol, 0.7% (w/w) polyoxyethylene sorbitan monostearate (Tween 60), 0.1% (w/w) polyoxyethylene sorbitan monooleate (Tween 80), 0.05% (w/w) methylhydroxyethyl-cellulose (MH EC), 0.03% (w/w) anti-foaming agent, 0.02% (w/w) xanthan gum, 0.02% (w/w) citric acid, 0.01% (w/w) lactic acid and 0.01% potassium sorbate. A composition without natamycin or fludioxonil was used as control. […] The treated strawberries were incubated in a closed box in the dark at 20° C. for 19 days.
The expected antifungal activity (E in %) of the combined antifungal composition comprising both active ingredients was calculated according to the Colby equation (Colby, 1967): E=X+Y−[(X·Y)/100] wherein X and Y are the observed antifungal activities (in %) of the individual active ingredients X and Y, respectively.
The experiment was conducted as described in Example 5, except for the fact that each wounded and inoculated strawberry was dipped individually for 1 minute in a freshly prepared aqueous antifungal composition comprising either 250 ppm natamycin (DSM Food Specialties, Delft, The Netherlands), 250 ppm fludioxonil or both. During incubation, the treated strawberries were assessed on mould growth according to the two methods described in Example 5.

[2] = system: mould; assay: Treatment of pineapples: mould incidence on the pineapple rinds after storage (Example 11); format: in vivo; details: 200 ppm natamycin, 250 ppm fludioxonil or both, 28 days of storage (21 days at 7.5° C., 7 days at 18 to 20° C.)
Excerpt: In this experiment pineapples were selected from a packing plant located in Costa Rica. These pineapples were selected based on uniformity in color and size. Furthermore, they were free from visual mold growth or any other visual damage caused by plagues or diseases.
The surface of the pineapples was first disinfected by immersion of the fruits for one minute in a solution comprising 150 ppm sodium hypochlorite. Next, the fruits were dried and thereafter the antimicrobial compositions were applied on the fruits using a modified watering can. This shower, to simulate the wax cascade used in pineapple packing plants, covered the rind of the fruits with a thin film of wax. The crown of the pineapple was not treated. […]
After 28 days, the mould incidence on the pineapple rinds was assessed using the following method. The number of pineapples with visual mould incidence on the rind per total of 40 pineapples was counted for all compositions. Subsequently, the antifungal activity (in %) of the individual and combined active ingredients (compositions B, C and D) was determined by calculating the reduction in mould incidence observed on the pineapple rind compared to composition A. The observed antifungal activity of composition D was compared to the expected antifungal activity of composition D according to the Colby method (Colby, 1967) as described in Example 5.

N#Cc1c[nH]cc1-c1cccc2c1OC(F)(F)O2 [Fludioxonil, fludioxonil]
Observed antifungal activity O (%) ([1]; 250 ppm natamycin, 250 ppm fludioxonil or both, 6 days): 89%
Observed antifungal activity O (%) ([1]; 250 ppm natamycin, 250 ppm fludioxonil or both, 7 days): 81%
Observed antifungal activity O (%) ([1]; 250 ppm natamycin, 250 ppm fludioxonil or both, 8 days): 81%
Observed antifungal activity O (%) ([1]; 250 ppm natamycin, 250 ppm fludioxonil or both, 9 days): 69%
Observed antifungal activity O (%) ([1]; 250 ppm natamycin, 250 ppm fludioxonil or both, 10 days): 55%
Observed antifungal activity O (%) ([1]; 250 ppm natamycin, 250 ppm fludioxonil or both, 11 days): 44%
Observed antifungal activity O (%) ([1]; 250 ppm natamycin, 250 ppm fludioxonil or both, 12 days): 32%
Observed antifungal activity O (%) ([1]; 250 ppm natamycin, 250 ppm fludioxonil or both, 13 days): 26%
Observed antifungal activity O (%) ([1]; 250 ppm natamycin, 250 ppm fludioxonil or both, 14 days): 19%
Observed antifungal activity O (%) ([1]; 250 ppm natamycin, 250 ppm fludioxonil or both, 15 days): 11%
Observed antifungal activity O (%) ([1]; 250 ppm natamycin, 250 ppm fludioxonil or both, 16 days): 6.0%
Observed antifungal activity O (%) ([1]; 250 ppm natamycin, 250 ppm fludioxonil or both, 18 days): 1.2%
Observed antifungal activity O (%) ([1]; 250 ppm natamycin, 250 ppm fludioxonil or both, 19 days): 0%
Number of moulded strawberries/total number of 12 strawberries ([1]; 250 ppm natamycin, 250 ppm fludioxonil or both, Day 6-8): 5 and 5/12
Number of moulded strawberries/total number of 12 strawberries ([1]; 250 ppm natamycin, 250 ppm fludioxonil or both, Day 9): 8 and 8/12
Number of moulded strawberries/total number of 12 strawberries ([1]; 250 ppm natamycin, 250 ppm fludioxonil or both, Day 10): 9 and 9/12
Number of moulded strawberries/total number of 12 strawberries ([1]; 250 ppm natamycin, 250 ppm fludioxonil or both, Day 11): 10 and 10/12
Number of moulded strawberries/total number of 12 strawberries ([1]; 250 ppm natamycin, 250 ppm fludioxonil or both, Day 12): 12 and 12/12
Number of moulded strawberries/total number of 12 strawberries ([1]; 250 ppm natamycin, 250 ppm fludioxonil or both, Day 13): 12 and 12/12
Number of moulded strawberries/total number of 12 strawberries ([1]; 250 ppm natamycin, 250 ppm fludioxonil or both, Day 14): 12 and 12/12
Number of moulded strawberries/total number of 12 strawberries ([1]; 250 ppm natamycin, 250 ppm fludioxonil or both, Day 15): 12 and 12/12
Observed antifungal activity O (%) ([1]; 500 ppm natamycin, 500 ppm fludioxonil or both, 7 days): 90%
Observed antifungal activity O (%) ([1]; 500 ppm natamycin, 500 ppm fludioxonil or both, 8 days): 80%
Observed antifungal activity O (%) ([1]; 500 ppm natamycin, 500 ppm fludioxonil or both, 9 days): 67%
Observed antifungal activity O (%) ([1]; 500 ppm natamycin, 500 ppm fludioxonil or both, 10 days): 56%
Observed antifungal activity O (%) ([1]; 500 ppm natamycin, 500 ppm fludioxonil or both, 11 days): 52%
Observed antifungal activity O (%) ([1]; 500 ppm natamycin, 500 ppm fludioxonil or both, 12 days): 44%
Observed antifungal activity O (%) ([1]; 500 ppm natamycin, 500 ppm fludioxonil or both, 13 days): 33%
Observed antifungal activity O (%) ([1]; 500 ppm natamycin, 500 ppm fludioxonil or both, 14 days): 24%
Observed antifungal activity O (%) ([1]; 500 ppm natamycin, 500 ppm fludioxonil or both, 15 days): 17%
Observed antifungal activity O (%) ([1]; 500 ppm natamycin, 500 ppm fludioxonil or both, 16 days): 13%
Observed antifungal activity O (%) ([1]; 500 ppm natamycin, 500 ppm fludioxonil or both, 18 days): 4.8%
Observed antifungal activity O (%) ([1]; 500 ppm natamycin, 500 ppm fludioxonil or both, 19 days): 3.6%
Number of moulded strawberries/total number of 12 strawberries ([1]; 500 ppm natamycin, 500 ppm fludioxonil or both, Day 7): 3 and 3/12
Number of moulded strawberries/total number of 12 strawberries ([1]; 500 ppm natamycin, 500 ppm fludioxonil or both, Day 8): 5 and 5/12
Number of moulded strawberries/total number of 12 strawberries ([1]; 500 ppm natamycin, 500 ppm fludioxonil or both, Day 9): 8 and 8/12
Number of moulded strawberries/total number of 12 strawberries ([1]; 500 ppm natamycin, 500 ppm fludioxonil or both, Day 10-11): 9 and 9/12
Number of moulded strawberries/total number of 12 strawberries ([1]; 500 ppm natamycin, 500 ppm fludioxonil or both, Day 12): 9 and 9/12
Number of moulded strawberries/total number of 12 strawberries ([1]; 500 ppm natamycin, 500 ppm fludioxonil or both, Day 13): 11 and 11/12
Number of moulded strawberries/total number of 12 strawberries ([1]; 500 ppm natamycin, 500 ppm fludioxonil or both, Day 14): 12 and 12/12
Number of moulded strawberries/total number of 12 strawberries ([1]; 500 ppm natamycin, 500 ppm fludioxonil or both, Day 15): 12 and 12/12
Number of moulded strawberries/total number of 12 strawberries ([1]; 500 ppm natamycin, 500 ppm fludioxonil or both, Day 16-17): 12 and 12/12
Observed antifungal activity O (%) [2]: 90%

Source: patent US9468212B2, “Antifungal compositions” (DSM IP ASSETS B.V., priority 2013, dated 2016)
